The record followed here is article PMC11412900 (Molecular Psychiatry, 2024).

Where two headings read alike, the source gives them in different places.

In one assay the target is T1, h5-HT1AR (Homo sapiens, UniProt P08908).
T1 construct: purchased Perkin Elmer, Inc. (Waltham, MA, USA)
T1 sequence (P08908 1-422): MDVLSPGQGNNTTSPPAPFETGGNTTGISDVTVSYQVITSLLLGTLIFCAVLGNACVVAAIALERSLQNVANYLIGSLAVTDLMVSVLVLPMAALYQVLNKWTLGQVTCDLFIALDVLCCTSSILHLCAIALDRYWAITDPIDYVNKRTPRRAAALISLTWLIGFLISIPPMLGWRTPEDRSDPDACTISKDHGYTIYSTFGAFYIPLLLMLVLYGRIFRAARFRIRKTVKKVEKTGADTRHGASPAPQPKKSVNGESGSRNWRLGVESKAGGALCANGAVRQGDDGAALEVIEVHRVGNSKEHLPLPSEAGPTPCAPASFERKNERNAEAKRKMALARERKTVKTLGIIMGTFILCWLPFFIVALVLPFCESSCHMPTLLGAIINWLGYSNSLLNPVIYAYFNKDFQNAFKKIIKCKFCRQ
Put plainly: Radioligand binding, [3H]8-OH-DPAT displacement. As to the method:
(§1) Binding assays were performed as described previously. Briefly, membrane preparations expressing h5-HT1AR, h5-HT2AR or hSERT (see Supplementary Material) were incubated with radiolabeled selective ligands 0.4 nM [^3H]8-OH-DPAT, 1 nM [^3H]ketanserin or 3 nM [^3H]imipramine, respectively. The drugs were diluted in the corresponding binding buffer and tested at increasing concentrations in duplicate. Binding reactions were performed in tubes containing the drug dilutions; 25 μl of the corresponding radioligand; and the membranes (10 μg and 5 μg/500 μL for 5-HT1AR and 5-HT2AR, respectively, and 15 μg/100 μL for hSERT), all diluted in binding buffer. […] Incubation was performed for 1 h at 27 °C for 5-HT1A/2AR and 22 °C for hSERT, according to the manufacturer’s protocol (Perkin Elmer, Inc., Waltham, MA, USA) and previous studies - saturation and kinetic experiments, respectively. The binding reactions were stopped by rapid filtration through GF/B glass microfiber filters pre-soaked with 0.5% polyethyleneimine and washing with ice-cold wash buffer. The filters were placed into vials and scintillation cocktail was added. The trapped radioactivity was quantified. Specific binding was defined as the difference between total binding (binding buffer alone) and non-specific binding. Experiments were conducted per duplicate for at least three independent experiments.

Assay [1] has as its system core body temperature in mice. Put plainly: Core body temperature measurement. The class given is in vivo. The note with it: mice, i.p., 60 min after injection. How it is done: Rectal temperature of mice (N = 8–10 per group) was measured 60 min after i.p. injection of the corresponding compound (see previous section “Head twitch response”). This time point was chosen according to the maximal effect observed in pilot experiments. A thermocouple probe (YS451, Panlab, Barcelona, Spain) connected to a digital thermometer (TMP812RS, Panlab, Barcelona, Spain) was inserted 2 cm into the rectum and steady temperature readout was obtained after 10 s of insertion.
(§2) Data were expressed as means±standard deviation (SD). Competition, release and functional assays, and substrate-induced current curves were plotted and fitted by non-linear regression to obtain the IC50, EC50, and Emax values. For behavioral studies, data were fitted by non-linear regression and pED50 and Emax values (with the corresponding 95% CI) were estimated by means of a software (GraphPad Prism 10) that further extrapolates the data. The Cheng-Prusoff equation was used to calculate Ki (affinity): Ki = […]/(1 + [radioligand-concentration/Kd]). HTR curves were fitted using a Gaussian equation as described. Data from batch release assays were statistically analyzed with a mixed-effects model, employing Šidák’s correction for multiple comparisons. Total release at each concentration and the behavioral experiments with the corresponding antagonists were statistically analyzed using one-way ANOVA, followed by Tukey’s post-hoc test. Molecular volume (van der Waals) was calculated using a grid approximation (spacing 0.75 Å). logP was calculated using Molinspiration Cheminformatics software. For in vivo studies, one-way ANOVA with Dunnet’s post-hoc test was used to compare all conditions to saline in dose-response experiments when data were normally distributed. Otherwise, a non-parametric test (Kruskall-Wallis with Dunn’s post-hoc test) was used. Alpha was set at 0.05. Outliers were excluded following ROUT’s method (Q = 0.1%). All statistical analyses and Pearson correlations were conducted using GraphPad Prism 10 software (GraphPad software, San Diego, CA, USA).

Assay [2] addresses T2, SERT (Homo sapiens, UniProt P31645).
T2 construct: YFP (yellow-fluorescent protein); expressed in transfected cells
Briefly: Radioligand binding, [3H]imipramine displacement. As to the method:
as §1
(§3) The generation and maintenance of HEK293 cells stably expressing the yellow-fluorescent protein (YFP)-tagged version of the human isoform of SERT (hSERT) (Perkin Elmer, Waltham, MA, USA) was carried out as described previously. For uptake inhibition and batch release assays, cells were seeded onto previously poly-D-lysine (PDL)-coated 96-well plates at a density of 0.036 million cells per well [5]. For superfusion release assays, cells were seeded onto a previously coated with PDL 6 channel µ-slide at a density of 0.08 million cells per channel. Prior to patching, cells were grown in DMEM containing 10% FBS, Zeocin (150 µg/mL) and Blasticidin (6 µg/mL) for positive selection of transporter-expressing clones. The cells were seeded at a low density on PDL-coated 35 mm plates 24-48 hr prior to patching. For membrane preparation, HEK293 cells expressing hSERT transporters were harvested from 80–90% confluent dishes as described elsewhere. Protein concentration was determined using the Bio-RadProtein Reagent (Bio Rad Laboratories, Hercules, CA, USA). Membrane preparations were stored at −80°C until use. Generation and maintenance of CHO-K1 cells expressing the human isoform of 5-HT2AR (h5-HT2AR) was carried out as described in the manufacturer’s protocol (Perkin Elmer, Waltham, MA, USA). Routine DAPI-Staining assays tested negative in mycoplasma contamination.

Assay [3] relates to horizontal locomotor activity in mice. Briefly: Horizontal locomotor activity (HLA). The class given is in vivo. The note with it: i.p., 30 min; for HLA (hypolocomotion) Emax (95% CI): total traveled distance. How it is done: The HLA test was carried out according to a previous study. The same animals (N = 8–10 per group) used for the assessment of HTR were recorded for 30 min in an observation arena, under low-light conditions with white noise. Video recordings were processed using a tracking software (Smart 3.0 Panlab, Barcelona, Spain) to measure the total traveled distance.
as §2

In assay [4] the target is T2, SERT. Put plainly: [3H]5-HT uptake inhibition in HEK293 cells expressing hSERT. The class given is cell-based. As to the method:
See the Supplementary Material for cell culture procedures. The medium was removed from each well and replaced with 200 μL/well of Krebs-HEPES-Buffer (KHB). The cells were pre-incubated for 5 min with different concentrations of drug in KHB at 50 μL/well. […] The incubation solution was aspirated and the cells were washed with ice-cold KHB and lysed with 1% sodium dodecyl sulfate (SDS). The lysate was collected into vials and scintillation liquid was added. The radioactivity was quantified using a beta-scintillation counter (Perkin Elmer, Waltham, MA, USA). Non-specific uptake was determined in the presence of 30 μM paroxetine. Data were expressed as percentage of control uptake (absence of tryptamine).
as §3

Setting [5] is: 0.4 nM [3H]8-OH-DPAT, N ≥ 3, read-out: 5-HT1AR Ki ± SD.
Where [6] appears, read: 3 nM [3H]imipramine, N ≥ 3, read-out: SERT Ki ± SD.
[7] abbreviates: read-out: 5-HT uptake inhibition IC50 ± SD, HEK293 hSERT, N ≥ 3.

T2 sequence (P31645 whole entry): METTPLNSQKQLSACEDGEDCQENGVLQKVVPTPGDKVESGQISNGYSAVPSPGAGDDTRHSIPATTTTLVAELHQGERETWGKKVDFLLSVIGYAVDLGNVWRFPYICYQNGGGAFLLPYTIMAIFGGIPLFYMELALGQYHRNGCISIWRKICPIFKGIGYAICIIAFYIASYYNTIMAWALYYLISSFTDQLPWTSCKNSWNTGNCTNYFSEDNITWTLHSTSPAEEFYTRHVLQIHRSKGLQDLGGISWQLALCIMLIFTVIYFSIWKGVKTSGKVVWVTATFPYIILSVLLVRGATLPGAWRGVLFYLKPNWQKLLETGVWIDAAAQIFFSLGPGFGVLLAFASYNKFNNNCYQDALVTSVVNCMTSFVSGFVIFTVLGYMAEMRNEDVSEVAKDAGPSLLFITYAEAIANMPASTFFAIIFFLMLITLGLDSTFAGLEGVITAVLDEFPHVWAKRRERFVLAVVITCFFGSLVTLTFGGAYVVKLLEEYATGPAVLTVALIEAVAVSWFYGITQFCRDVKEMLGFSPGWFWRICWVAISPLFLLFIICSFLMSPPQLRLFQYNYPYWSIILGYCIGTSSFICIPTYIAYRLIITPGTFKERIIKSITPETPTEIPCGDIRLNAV

As a reminder, the Ki is a measure of affinity in units of concentration, obtained from inhibition or displacement. In general, IC50 refers to the concentration at which inhibition is half-maximal. Consider `C=CCN(CC=C)CCc1c[nH]c2ccc(OC)cc12` [5-MeO-DALT], for which the Ki at h5-HT1AR (setting [5]) worked out at 3.26 ± 0.39 nM. Besides, the “Change in body temperature ED50” value in assay [1] amounted to 13.6 mg/kg. Moreover, the Ki on SERT [2] (setting [6]) was 1190 ± 96 nM. For the same compound, in assay [3], the “HLA (hypolocomotion) ED50” value is given as 6.22 mg/kg and the “HLA (hypolocomotion) Emax (95% CI)” value is listed as 73.11 (57.45–88.78) % reduction. The IC50 at SERT [4] (setting [7]) stood at 22300 nM.

For `CCN(CC)CCc1c[nH]c2ccc(OC)cc12` [5-MeO-DET], the values for the Ki on h5-HT1AR (setting [5]) and on SERT [2] (setting [6]) were 4.93 ± 0.62 nM and 10400 nM, respectively. The “Change in body temperature ED50” value in assay [1] is recorded as 7.18 mg/kg. Further, in assay [3], the “HLA (hypolocomotion) ED50” value came to 4.78 mg/kg. The “HLA (hypolocomotion) Emax (95% CI)” value in assay [3] is 63.56 (37.58–89.53) % reduction. Besides, at SERT [4] (setting [7]), the IC50 turned out to be 60000 nM.

One may read the ED50 as the dose that gives a 50% effect, or the effect in half of the subjects. For `COc1ccc2[nH]cc(CCN(C(C)C)C(C)C)c2c1` [5-MeO-DIPT, 5-methoxy-N,N-diisopropyltryptamine], the Ki at h5-HT1AR stood at 15.8 ± 1.3 nM; at SERT [2], 1620 ± 475 nM. The ED50 in assay [1] (Mus musculus, ip, 1 h, read-out: Change in body temperature ED50) was 14.8 mg/kg; in assay [3] (Mus musculus, ip, 0.5 h, read-out: HLA (hypolocomotion) ED50) it was 4.52 mg/kg. Further, in assay [3], the “HLA (hypolocomotion) Emax (95% CI)” value is 55.32 (38.20–72.44) % reduction. At SERT [4], this compound displayed an IC50 of 24200 nM.

As for `CCN(CCc1c[nH]c2ccc(OC)cc12)C(C)C` [5-MeO-EIPT], the Ki came to 18.4 ± 8.4 nM at h5-HT1AR (setting [5]) and 1780 ± 83 nM at SERT [2] (setting [6]). In assay [1], the “Change in body temperature ED50” value turned out to be 15.0 mg/kg. Further, the “HLA (hypolocomotion) ED50” value in assay [3] came out at 4.82 mg/kg. The “HLA (hypolocomotion) Emax (95% CI)” value in assay [3] is on record as 68.02 (54.57–81.46) % reduction. Also, on SERT [4] (setting [7]), the concentration for half-maximal inhibition (IC50) worked out at 22200 nM.

As to `CCN(C)CCc1c[nH]c2ccc(OC)cc12` [5-MeO-MET], at h5-HT1AR (setting [5]), the Ki turned out to be 3.11 ± 0.51 nM. Further, the “Change in body temperature ED50” value in assay [1] turned out to be 4.76 mg/kg. Also, the Ki on SERT [2] (setting [6]) came to 7710 ± 3380 nM. Besides, in assay [3], the “HLA (hypolocomotion) ED50” value amounted to 1.70 mg/kg and the “HLA (hypolocomotion) Emax (95% CI)” value was 66.79 (58.20–75.37) % reduction. The IC50 at SERT [4] (setting [7]) was 30100 nM.

For the compound `COc1ccc2[nH]cc(CCN(C)C(C)C)c2c1` [5-MeO-MIPT], the Ki at h5-HT1AR (setting [5]) is 24.8 ± 7.6 nM. Further, in assay [1], the “Change in body temperature ED50” value was 14.8 mg/kg. Also, the Ki at SERT [2] (setting [6]) worked out at 2870 ± 928 nM. Also, in assay [3], the “HLA (hypolocomotion) ED50” value was determined as 6.57 mg/kg and the “HLA (hypolocomotion) Emax (95% CI)” value is listed as 82.78 (62.16–103.4) % reduction. For the same compound, the IC50 at SERT [4] (setting [7]) turned out to be 29800 nM.

As for `COc1ccc2[nH]cc(CCN3CCCC3)c2c1` [5-MeO-pyr-T], the Ki at h5-HT1AR (setting [5]) stood at 0.577 ± 0.195 nM. For the same compound, the “Change in body temperature ED50” value in assay [1] came out at 2.89 mg/kg. Moreover, at SERT [2] (setting [6]), the Ki is 3010 ± 354 nM. Further, in assay [3], the “HLA (hypolocomotion) ED50” value stood at 1.60 mg/kg and the “HLA (hypolocomotion) Emax (95% CI)” value is given as 71.25 (60.71–81.79) % reduction. Also, the IC50 on SERT [4] (setting [7]) came out at 2760 ± 1430 nM.
